“And” between values parts separate entries of the source, which are not always exact repeats. Identical values can stand only once. Inconclusive results and toxic doses are left out. Rule for the calls: active = survival T/C of 150% or more; inactive = T/C below 125% in these data.
System: CD2F1 mice, L1210 leukemia ip, survival T/C
Assay: NCI In Vivo Anticancer Drug Screen. Data for tumor model L1210 Leukemia (intraperitoneal) in CD2F1 (CDF1) mice
Settings: higher = longer survival
Summary of the method: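 Read-out first: treated-group measurement over vehicle-control measurement, expressed as a ratio. Animals bore a transplanted tumor line and were dosed with compound or vehicle.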

[1] = endpoint: mean survival time, dose: 100.0 mg/kg/injection, schedule: Q04DX003 (ip), vehicle: Klucel (hydroxypropylcellulose) (HPC)
[2] = endpoint: mean survival time, dose: 200.0 mg/kg/injection, schedule: Q04DX003 (ip), vehicle: Klucel (hydroxypropylcellulose) (HPC)
[3] = endpoint: mean survival time, dose: 100.0 mg/kg/injection, schedule: Q01DX009 (ip), vehicle: saline with Tween-80
[4] = endpoint: mean survival time, dose: 200.0 mg/kg/injection, schedule: Q01DX009 (ip), vehicle: saline with Tween-80
[5] = endpoint: mean survival time, dose: 400.0 mg/kg/injection, schedule: Q01DX009 (ip), vehicle: saline with Tween-80
[6] = endpoint: mean survival time, dose: 100.0 mg/kg/injection, schedule: Q04DX002 (ip), vehicle: saline with Tween-80
[7] = endpoint: mean survival time, dose: 200.0 mg/kg/injection, schedule: Q04DX002 (ip), vehicle: saline with Tween-80
[8] = endpoint: mean survival time, dose: 400.0 mg/kg/injection, schedule: Q04DX002 (ip), vehicle: saline with Tween-80
[9] = endpoint: mean survival time, dose: 100.0 mg/kg/injection, schedule: Q04DX003 (ip), vehicle: saline with Tween-80
[10] = endpoint: mean survival time, dose: 200.0 mg/kg/injection, schedule: Q04DX003 (ip), vehicle: saline with Tween-80
[11] = endpoint: mean survival time, dose: 400.0 mg/kg/injection, schedule: Q04DX003 (ip), vehicle: saline with Tween-80
[12] = endpoint: mean survival time, dose: 100.0 mg/kg/injection, schedule: Q04DX003 (ip), vehicle: saline
[13] = endpoint: mean survival time, dose: 100.0 mg/kg/injection, schedule: Q01DX001 (ip), vehicle: saline with Tween-80
[14] = endpoint: mean survival time, dose: 200.0 mg/kg/injection, schedule: Q01DX001 (ip), vehicle: saline with Tween-80
[15] = endpoint: mean survival time, dose: 400.0 mg/kg/injection, schedule: Q01DX001 (ip), vehicle: saline with Tween-80
[16] = endpoint: mean survival time, dose: 50.0 mg/kg/injection, schedule: Q01DX009 (ip), vehicle: saline with Tween-80

Measured: T/C

N#CC(C(N)=O)C1CC(=O)Oc2ccccc21 (stereo unspecified)
inactive: [1] 91 % of control | [2] 112 % of control

Cc1n[nH]n(Cc2ccccc2)c1=O
inactive: endpoint: mean survival time, dose: 25.0 mg/kg/injection, schedule: Q01DX005 (ip), vehicle: saline with Tween-80 97 % of control | endpoint: mean survival time, dose: 50.0 mg/kg/injection, schedule: Q01DX005 (ip), vehicle: saline with Tween-80 99 % of control | endpoint: mean survival time, dose: 100.0 mg/kg/injection, schedule: Q01DX005 (ip), vehicle: saline with Tween-80 97 % of control | endpoint: mean survival time, dose: 200.0 mg/kg/injection, schedule: Q01DX005 (ip), vehicle: saline with Tween-80 99 % of control | endpoint: mean survival time, dose: 400.0 mg/kg/injection, schedule: Q01DX005 (ip), vehicle: saline with Tween-80 97 % of control

COc1ccc2cc(CC(=O)c3ccccc3)ccc2c1
inactive: [3] 100 % of control | [4] 96 % of control | [5] 90 % of control

CNC(=S)NNc1ccccc1Cl
inactive: endpoint: mean survival time, dose: 12.5 mg/kg/injection, schedule: Q01DX009 (ip), vehicle: other 98 % of control | endpoint: mean survival time, dose: 25.0 mg/kg/injection, schedule: Q01DX009 (ip), vehicle: other 94 % of control | endpoint: mean survival time, dose: 50.0 mg/kg/injection, schedule: Q01DX009 (ip), vehicle: other 88 % of control | endpoint: mean survival time, dose: 100.0 mg/kg/injection, schedule: Q01DX009 (ip), vehicle: other 104 % of control | endpoint: mean survival time, dose: 200.0 mg/kg/injection, schedule: Q01DX009 (ip), vehicle: other 104 % of control

CC(O)C1(O)C(O)CC(OC2c3cc4c(c(O)c3[C@@H]3C[C@@]2(C)OC32C=c3cc[nH]c3=N2)C(=O)c2cccc(O)c2C4=O)OC1C (stereo partly specified)
inactive: endpoint: median survival time, dose: 6.25 mg/kg/injection, schedule: Q01DX009 (ip), vehicle: saline with Tween-80 114 % of control | endpoint: median survival time, dose: 12.5 mg/kg/injection, schedule: Q01DX009 (ip), vehicle: saline with Tween-80 118 % of control | endpoint: median survival time, dose: 25.0 mg/kg/injection, schedule: Q01DX009 (ip), vehicle: saline with Tween-80 113 % of control | endpoint: median survival time, dose: 50.0 mg/kg/injection, schedule: Q01DX009 (ip), vehicle: saline with Tween-80 97 % of control

COC(=O)c1cc(-c2ccc(Cl)cc2)nc2cc(Cl)c(OC)cc12
inactive: endpoint: mean survival time, dose: 100.0 mg/kg/injection, schedule: Q01DX001 (ip), vehicle: saline 92 % of control | endpoint: mean survival time, dose: 200.0 mg/kg/injection, schedule: Q01DX001 (ip), vehicle: saline 87 % of control

CCCCCCCCCCCOc1ccccc1Cl
inactive: [6] 90 % of control | [7] 93 % of control | [8] 93 % of control

COc1cccc2c1C(=O)c1c(O)c3c(c(O)c1C2=O)C[C@@](O)(C(=O)COC(=O)c1ccccc1)C[C@@H]3OC1CC(N)C(O)C(C)O1 (stereo partly specified)
inactive: endpoint: mean survival time, dose: 0.5 mg/kg/injection, schedule: Q01DX009 (ip), vehicle: saline sonified 122 % of control | endpoint: mean survival time, dose: 1.3 mg/kg/injection, schedule: Q04DX003 (ip), vehicle: Klucel (hydroxypropylcellulose) (HPC) 124 % of control

[CH3][Sb]([CH3])([CH3])([O]C(=O)CCl)[O]C(=O)CCl
inactive: [6] 107 % of control | [7] 107 % of control | [8] 103 % of control

COC(=O)c1cc(I)ccc1O
inactive: [3] 107 % of control | [9] 103 % of control | [4] 109 % of control | [10] 100 % of control | [5] 103 % of control | [11] 100 % of control

NC(=O)C12CCCCC1CCC(=O)C2 (stereo unspecified)
inactive: endpoint: mean survival time, dose: 25.0 mg/kg/injection, schedule: Q04DX003 (ip), vehicle: saline 93 % of control | endpoint: mean survival time, dose: 50.0 mg/kg/injection, schedule: Q04DX003 (ip), vehicle: saline 96 % of control | [12] 90 % of control

O=C(O)/C=C\SCCCC(=O)O
inactive: [13] 94 % of control | [14] 111 % of control | [15] 103 % of control

CC12CCC3c4ccc(O)cc4CCC3C1CCC2S (stereo unspecified)
inactive: [9] 88 % of control | [10] 92 % of control

O=C(O)c1cnc(Cl)c(Br)c1
inactive: [13] 103 % of control | [9] 97 % of control | [14] 93 % of control | [10] 93 % of control | [15] 98 % of control | [11] 93 % of control

Nc1nc(N)c(N)c(/C=C/c2ccccc2)n1
inactive: endpoint: mean survival time, dose: 0.32 mg/kg/injection, schedule: Q01DX009 (ip), vehicle: other 101 % of control | endpoint: mean survival time, dose: 0.63 mg/kg/injection, schedule: Q01DX009 (ip), vehicle: other 106 % of control | endpoint: mean survival time, dose: 0.63 mg/kg/injection, schedule: Q01DX009 (ip), vehicle: water 97 % of control | endpoint: mean survival time, dose: 1.25 mg/kg/injection, schedule: Q01DX009 (ip), vehicle: other 98 % of control | endpoint: mean survival time, dose: 1.25 mg/kg/injection, schedule: Q01DX009 (ip), vehicle: water 103 % of control | endpoint: mean survival time, dose: 2.5 mg/kg/injection, schedule: Q01DX009 (ip), vehicle: other 101 % of control | endpoint: mean survival time, dose: 2.5 mg/kg/injection, schedule: Q01DX009 (ip), vehicle: water 97 % of control | endpoint: mean survival time, dose: 5.0 mg/kg/injection, schedule: Q01DX009 (ip), vehicle: other 101 % of control | endpoint: mean survival time, dose: 5.0 mg/kg/injection, schedule: Q01DX009 (ip), vehicle: water 97 % of control

C/C=C\C=C\C(=O)O
inactive: [3] 100 % of control | [4] 97 % of control | [5] 100 % of control

C=CC1CC=CCC1 (stereo unspecified)
inactive: [3] 103 % of control | [4] 106 % of control

CN(C)c1ccn(C2OC(CO)C(O)C2O)c(=O)n1 (stereo unspecified)
inactive: endpoint: mean survival time, dose: 100.0 mg/kg/injection, schedule: Q01DX005 (ip), vehicle: water 107 % of control | endpoint: mean survival time, dose: 200.0 mg/kg/injection, schedule: Q01DX005 (ip), vehicle: water 103 % of control | endpoint: mean survival time, dose: 400.0 mg/kg/injection, schedule: Q01DX005 (ip), vehicle: water 115 % of control

O=c1[nH]c(=O)c2ccccc2o1
inactive: endpoint: mean survival time, dose: 12.5 mg/kg/injection, schedule: Q01DX009 (ip), vehicle: saline with Tween-80 101 % of control | endpoint: mean survival time, dose: 25.0 mg/kg/injection, schedule: Q01DX009 (ip), vehicle: saline with Tween-80 101 % of control | [16] 98 % of control

CCC1(O)C(=O)OCc2c1cc1n(c2=O)Cc2cc3cc(Cl)ccc3nc2-1 (stereo unspecified)
inactive: endpoint: median survival time, dose: 40.0 mg/kg/injection, schedule: Q04DX002 (ip), vehicle: saline with Tween-80 89 % of control
active: endpoint: median survival time, dose: 5.0 mg/kg/injection, schedule: Q04DX002 (ip), vehicle: saline with Tween-80 196 % of control | endpoint: median survival time, dose: 10.0 mg/kg/injection, schedule: Q04DX002 (ip), vehicle: saline with Tween-80 264 % of control and 280 % of control

c1ccc(COCc2ccccc2Cn2ccnc2)cc1
inactive: endpoint: mean survival time, dose: 10.0 mg/kg/injection, schedule: Q04DX003 (ip), vehicle: saline 120 % of control | endpoint: mean survival time, dose: 20.0 mg/kg/injection, schedule: Q04DX003 (ip), vehicle: saline 101 % of control | endpoint: mean survival time, dose: 40.0 mg/kg/injection, schedule: Q04DX003 (ip), vehicle: saline 95 % of control

CC(=O)Nc1ccc([N+](=O)[O-])cc1C
inactive: endpoint: mean survival time, dose: 50.0 mg/kg/injection, schedule: Q04DX003 (ip), vehicle: saline with Tween-80 101 % of control | [9] 100 % of control | [10] 103 % of control

O=C1OC(=O)C2C3OC(C4CN=NC43)C12 (stereo unspecified)
inactive: [6] 112 % of control | [7] 118 % of control

O=C(CNC(=O)NCc1ccco1)N/N=C/c1c(O)ccc2ccccc12
inactive: [16] 93 % of control | [3] 97 % of control | [4] 101 % of control

COc1cc2c(cc1OC)C(OC)N(C)c1c-2ccc2cc3c(cc12)OCO3 (stereo unspecified)
inactive: endpoint: mean survival time, dose: 3.13 mg/kg/injection, schedule: Q01DX009 (ip), vehicle: water 117 % of control | endpoint: mean survival time, dose: 6.25 mg/kg/injection, schedule: Q01DX009 (ip), vehicle: water 121 % of control | endpoint: mean survival time, dose: 12.5 mg/kg/injection, schedule: Q01DX009 (ip), vehicle: water 123 % of control | endpoint: mean survival time, dose: 25.0 mg/kg/injection, schedule: Q01DX009 (ip), vehicle: water 121 % of control

C#CCOc1c(C(=O)OCC)cnc2c1c(C)nn2CC
inactive: [1] 101 % of control | [2] 97 % of control | endpoint: mean survival time, dose: 400.0 mg/kg/injection, schedule: Q04DX003 (ip), vehicle: Klucel (hydroxypropylcellulose) (HPC) 101 % of control

O=C1C=CC(=O)N1c1ccc(Cl)cc1 (tested in a mixture with another compound)
inactive: [3] 93 % of control | [4] 87 % of control | [5] 98 % of control

CCOC(=O)C(CO)NC(=O)C[NH-].CCOC(=O)C(CO)NC(=O)C[NH-].[Cl][Pt+2][Cl] (stereo unspecified)
inactive: [12] 111 % of control | endpoint: mean survival time, dose: 200.0 mg/kg/injection, schedule: Q04DX003 (ip), vehicle: saline 111 % of control | endpoint: mean survival time, dose: 400.0 mg/kg/injection, schedule: Q04DX003 (ip), vehicle: saline 114 % of control

Reference: PubChem BioAssay AID256 (DTP/NCI, 2004)
